From article PMC6882468 (Journal of Enzyme Inhibition and Medicinal Chemistry, 2019) come the findings set out here.

The test system of series [1] is iNOS expression in RAW264.7 cells. The experiment in a line: Western blot of LPS-induced iNOS expression. The series is classed as cell-based, Murine. The note with it: RAW264.7, LPS 200 ng/mL 24 h. On the procedure: (§1) The cell in 96-well plates were treated as described above and then stimulated with LPS (200 ng/mL) for 24 h. The cells were harvested and lysed in an extraction lysis buffer (Beyotime Biotechnology, Shanghai, China) containing protease inhibitors. The protein concentration was determined using a BCA protein assay kit (Thermo Scientific, 23227). The whole cell lysates were separated by 10% sodium dodecyl sulphate-polyacrylamide gel electrophoresis and transferred to a nitrocellulose membrane. Each membrane was incubated with Tris-buffered saline (pH 7.6, containing 0.05% Tween-20 and 5% non-fat milk). The nitrocellulose membrane was incubated with the primary antibody against p-JNK1/2, JNK1/2, p-p38, p38, p-ERK1/2, ERK1/2, IκBa, NF-κB p65, COX-2, iNOS or β-Actin (Abcam, Cambridge, UK). Immunoreactive bands were detected by incubating with horseradish peroxidase-conjugated secondary antibodies, and visualised using enhanced chemiluminescence reagents (Bio-Rad, Hercules, CA).
Figure 6. […] Cell viability was evaluated using the MTT assay. NO production was measured using nitrite and nitrate assay. iNOS and COX-2 expression were detected by Western blot. (A) Cell viability assay; (B) Quantitative analysis of NO productions; (C) Quantitative analysis of iNOS expressions, (D) Quantitative analysis of COX-2 expressions. β-actin was used as loading control.
For orientation: Immunoblotting shows a protein as a band on a membrane.

Series [2] deals with p38 phosphorylation in RAW264.7 cells. The experiment in a line: Western blot of LPS-induced p38 phosphorylation. The series is classed as cell-based, Murine. The conditions noted are these: RAW264.7, 5, 10, 20 μM, LPS 200 ng/mL. On the procedure:
as §1
(§2) Figure 7. Compound 6n inhibited LPS-induced MAPK-signalling activation in RAW264.7 cells. RAW264.7 cells were co-incubated with 6n (5, 10, 20 μM) and LPS (200 ng/mL) for 30 min. The levels of p38, JNK, ERK1/2 and their phosphorylated forms were analysed using western blot.

Series [3] deals with NO production in RAW 264.7 macrophages. Nature of the series: Measurement of LPS-induced NO production (Griess). The series is classed as cell-based, Murine. The conditions noted are these: RAW264.7, 2 h pre-treatment (0–20 µM), LPS 200 ng/mL 24 h. On the procedure:
Murine RAW 264.7 macrophages were obtained from the American Type Culture Collection (ATCC, USA). The cells were incubated in DMEM media supplemented with 10% FBS, 100 U/mL penicillin and […] streptomycin at 37 °C with 5% CO2. The RAW 264.7 macrophages were inoculated at 96-well plates and were pre-treated with vehicle or 6n (0–20 µM dose range) for 2 h and then stimulated with LPS (200 ng/mL) for 24 h. NO concentration in the medium was determined using Griess reagent kit (Beyotime, China) at 540 nm with a microplate reader (MQX200, Bio-Tek, USA) and calculated the inhibition rate of NO.

In series [4] the test system is ERK phosphorylation in RAW264.7 cells. Nature of the series: Western blot of LPS-induced ERK phosphorylation. The series is classed as cell-based, Murine. The conditions noted are these: RAW264.7, 5, 10, 20 μM, LPS 200 ng/mL. On the procedure:
as §1, §2

The target of the next series is T1, COX-1 (Ovis aries, UniProt P05979).
T1 construct: purchased BioVision, Inc
T1 sequence (P05979 25-600): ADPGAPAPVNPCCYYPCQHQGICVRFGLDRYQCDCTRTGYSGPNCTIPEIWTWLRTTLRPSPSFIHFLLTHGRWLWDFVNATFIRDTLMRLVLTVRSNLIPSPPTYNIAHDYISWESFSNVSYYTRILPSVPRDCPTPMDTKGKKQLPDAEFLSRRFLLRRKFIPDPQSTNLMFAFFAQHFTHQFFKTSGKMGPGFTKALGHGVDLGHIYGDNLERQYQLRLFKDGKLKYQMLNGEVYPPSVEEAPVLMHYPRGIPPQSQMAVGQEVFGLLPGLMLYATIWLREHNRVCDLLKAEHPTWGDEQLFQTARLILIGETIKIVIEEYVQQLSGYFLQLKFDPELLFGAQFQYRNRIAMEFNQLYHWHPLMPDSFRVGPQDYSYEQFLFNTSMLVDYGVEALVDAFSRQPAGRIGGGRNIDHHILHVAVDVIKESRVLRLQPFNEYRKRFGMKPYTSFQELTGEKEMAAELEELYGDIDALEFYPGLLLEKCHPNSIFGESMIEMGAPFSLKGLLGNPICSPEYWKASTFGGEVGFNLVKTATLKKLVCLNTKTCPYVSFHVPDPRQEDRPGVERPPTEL
Nature of the series: COX-1 inhibition assay in vitro (COX Inhibitor Screening Kit, fluorometric). The series is classed as biochemical. On the procedure:
Simply, different concentrations of the test compound solution were added to the mixed solution containing COX-1/COX-2 enzyme (10 µL) and Assay Buffer (960 µL, 0.1 M Tris-HCl pH 8.0 containing 5 µM EDTA and 2 µM phenol). […] The IC50 values were calculated as described above.

Another series concerns the target p38α MAPK (Homo sapiens, UniProt Q16539). Nature of the series: p38α MAPK inhibition assay in vitro. The conditions noted are these: triplicate, read-out: IC50 p38p. The series is classed as biochemical. On the procedure: In brief, after mixing the enzyme reagent with the sample, a reaction mixture containing 200 µM biotin-peptide substrate and 600 µM ATP (+100 µCi/mL γ-^32 P-ATP) was added to initiate the reaction. […] Part of the reaction solution was transferred to the well of a streptavidin-coated flash plate, washed in PBS containing 0.01% Tween and sealed. The average value of counts per minute for each group and the IC50 value was calculated.
The average fluorescence values of each well were calculated and recorded as RFU (Relative Fluorescence Unit) blank control (RFU blank), RFU 100% enzyme activity control (RFU enzyme), RFU positive drug control (RFU drug) and RFU test compound (RFU compound). The inhibition rate is calculated according to the following formula. Inhibition rate (%)= (RFU (enzyme) – RFU (compound/drug) […]) /(RFU (enzyme) – RFU (blank)) * 100%
The IC50 value of the test compound was calculated by the concentration-inhibition reaction curve and the assays were performed in triplicate.

For a further series, the system named is RAW 264.7 cells. The experiment in a line: Cell viability assay (MTT). The conditions noted are these: RAW264.7 cells, concentrations ranging from 5 to 50 µM, 24 h. The series is classed as cell-based, Murine. On the procedure:
Murine RAW 264.7 macrophages were obtained from the American Type Culture Collection (ATCC, USA). The cells were incubated in DMEM media supplemented with 10% FBS, 100 U/mL penicillin and […] streptomycin at 37 °C with 5% CO2. Cell viability was assessed using the MTT assay. RAW 264.7 cells were inoculated in 96-well plate at a density of 1.0 × 10^5 cells per well. After incubated for 24 h, the cells were treated with various concentrations of the compound. After an additional 24-h incubation, 20 µL of 0.5 mg/mL MTT reagent was added to wells and incubated for another 4 h. After 4 h, cell culture media was removed and DMOS was added into each well, and then, the optical density was measured at 570 nm. The IC50 values were determined by GraphPad Prism 6.

p38α MAPK, sequence (Q16539 whole entry): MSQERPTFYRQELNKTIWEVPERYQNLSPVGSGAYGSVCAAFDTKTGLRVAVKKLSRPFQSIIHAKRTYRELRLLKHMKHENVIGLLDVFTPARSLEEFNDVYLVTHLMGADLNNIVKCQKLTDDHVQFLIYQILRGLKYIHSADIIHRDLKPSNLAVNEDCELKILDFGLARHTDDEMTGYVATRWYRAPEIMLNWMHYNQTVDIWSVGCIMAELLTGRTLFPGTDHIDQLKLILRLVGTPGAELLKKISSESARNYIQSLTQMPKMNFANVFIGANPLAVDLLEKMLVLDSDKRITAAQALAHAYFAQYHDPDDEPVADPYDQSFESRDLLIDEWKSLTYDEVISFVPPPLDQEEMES

`COc1ccccc1CN1CCN(C(=O)c2ccccc2C(C)=O)CC1` [Compound 6n, 1–(2-(4–(2-Methoxybenzyl)piperazine-1-carbonyl)phenyl)ethan-1-one]: the “LPS-induced expression of iNOS” value in series [1] is reported as “dose-dependent decrease”. For the same molecule, in series [2], the p38 phosphorylation entry is “significantly lower”. Further, the “LPS-induced NO production” value in series [3] is recorded as “reduced LPS-induced NO production in a dose-dependent manner”. The “phosphorylation of ERK” value in series [4] was “no obvious effect”. The IC50 against COX-1 was determined as 12.6 ± 0.79 µM; at p38α MAPK, 1.95 ± 0.13 µM. Moreover, the cytotoxicity entry with RAW 264.7 cells is reported as “no significant toxicity”.

Broadly, the IC50 is the concentration needed to halve the response being measured.
